Data from article PMC5352051, “Identification of a novel Polo-like kinase 1 inhibitor that specifically blocks the functions of Polo-Box domain” (Oncotarget, 2016).

Columns and labels:
[1] = tested on: 12 human cancer cell lines; assay: MTT assay, panel of cancer cell lines; type: cell-based; conditions: all tested 12 human cancer cell lines; read-out: IC50 proliferation, range over cell lines
Procedure: The MTT assay was performed as described. In brief, cells were seeded at 3000~5000 cells/well into 96-well plates (200 μL/well) and incubated overnight. We replaced the growth medium with fresh medium containing T521 at several concentrations (two-fold dilutions and the initial concentration is 50 μM, 10 reactions total). After further incubation for 48 hrs in the presence of T521, the medium was removed from all wells and the cells were incubated with 200 μL of fresh medium for additional 24 hrs. We then added 22 μL of MTT solution (Amresco; 5 mg/mL in PBS) to each well and incubated the plate for 4 hrs at 37°C. After removing the medium, we dissolved the purple MTT-formazan crystals by adding 150 μL of DMSO to each well and recorded absorbance at 560 nm by Envision Multilabel Reader (PerkinElmer). The inhibition curve was plotted to determine the IC50 of various cell lines using GraphPad Prism5.0.

[2] = tested on: Plk1, Cyclin B1 and pHH-3 in HeLa cells; assay: Western blot of mitotic markers; type: cell-based, human; conditions: synchronized HeLa, indicated concentrations, 16 hrs
Procedure: HeLa cells were collected after trypsinization and lysed with RIPA buffer. Equal amount of proteins (30 μg/lane) were loaded, separated by 15% SDS-PAGE. After blocking with blocking buffer for 2 hrs at RT, the membrane was incubated with the following primary antibodies diluted in blocking buffer overnight at 4°C: anti-hPlk1 mouse monoclonal antibody (Cat# P5998; Sigma; 1:3000), anti-CyclinB1 rabbit polyclonal antibody (Cat# SAB4503501; Sigma; 1:2000), anti-pHH3 rabbit monoclonal antibody (Cat# 04-817; Millipore; 1:2000), anti-GAPDH rabbit polyclonal antibody (Cat# P30008; Abmart; 1:2000). The membrane was washed 3 times and then incubated with Horseradish Peroxidase-conjugated secondary antibodies for 1 hr at RT and visualized with ECL system (Millipore). The level of GAPDH was used as the loading control.

[3] = tested on: HeLa cells; assay: Apoptosis assay, Annexin V/PI dual-staining; type: cell-based, human; conditions: exponentially growing HeLa, various concentrations, 24 hrs, vs DMSO
Procedure: For apoptosis assay, HeLa cells were seeded at 3.0×10^4 cells/well into 6-well plates and incubated overnight. Then exponentially growing HeLa cells were treated with T521 at the indicated concentrations for 24 hrs and Annexin V/PI dual-staining was carried out using a commercial apoptosis assay kit (Beijing 4A Biotech. Co., Ltd.). DMSO-treated cells were taken as control.

[4] = tested on: A549 lung-carcinoma cells; assay: A549 xenograft in nude mice, tumor volume; type: in vivo; conditions: intratumoral injection 50 and 100 mg/kg, Wednesdays and Fridays, 5 weeks, vs DMSO
Procedure: (§1) Female athymic nude mice were injected with 2.0 × 10^7 A549 lung-carcinoma cells subcutaneously. After 14~20 days, when the tumor volumes reached 100~150 mm^3, animals were divided into treatment (T521; 50, 100 mg/kg) and control (DMSO) groups with ten mice in each group. T521 (0.2 g/mL) dissolved in DMSO was administered alone and mice were treated with T521 by intratumoral injection at the different injection points according to indicated dose on Wednesdays and Fridays for 5 weeks. Tumor volumes were determined with a caliper on Monday and Thursday during drug administration cycle. Tumor volume (mm^3) was calculated using the following equation: V=L×S^2×π/6, where L is the length and S is width of the tumor. The body weight of these mice was determined as an indicator of tolerability on the same days. Student's t-tests were performed for statistical evaluation among treatment and control groups. All mice were properly treated in accordance with the guidelines of the local animal committee.

[5] = Body weight of xenografted nude mice (tolerability); type: in vivo; conditions: intratumoral injection 50 and 100 mg/kg, 5 weeks, vs control
Procedure: as §1

[6] = biological target: T1, Plk1 (Homo sapiens, UniProt P53350); assay: HPLC-Q-TOF mass spectrometry of intact protein after incubation; type: binding; conditions: Plk1 10 μM, T521 500 μM, 50 mM Tris-HCl pH8.0, RT, 30 min
T1 construct: purchased Sino Biological Inc
Procedure: (§2) The covalent binding mode was speculated from the interactions between Poloxin, TQ and Plk1 PBD [23]. […] To test this possibility, we incubated purified Plk1 (10 μM) with T521 (500 μM) in 50 mM Tris-HCl (pH8.0) at room temperature for 30 min. […] In contrast, no addition of T521 to Plk2 or Plk3 was detected after their incubation with T521 (Supplementary Figure S1C, S1D, S1E and S1F).
(§3) Supplementary Figure S1: Analysis of binding mode between T521 and Plk1-3 using HPLC-Q-TOF MS. Plk1-3 (10 μM) proteins were incubated with or without T521 (500 μM) in 50 mM Tris-HCl (pH8.0) at RT for 30 min. The desalted samples (5 μg) were eluted with an HPLC gradient program into a Q-TOF mass spectrometer (Agilent, USA). Mass spectra were obtained after deconvolution.
(§4) A, C, E. The analysis of Plk1-3 proteins after incubation in the absence of T521. B, D, F. The analysis of Plk1-3 proteins after incubation […]
(§5) (also on this page, place not known: www.impactjournals.com/oncotarget/ Oncotarget, Materials 2016 Supplementary) […]

[7] = biological target: T2, Plk2 (Homo sapiens, UniProt Q9NYY3); assay: as above; type: binding; conditions: Plk2 10 μM, T521 500 μM, RT, 30 min
T2 construct: purchased Sino Biological Inc
Procedure: as §2, §3, §4, §5

[8] = biological target: T3, Plk3 (Homo sapiens, UniProt Q9H4B4); assay: as above; type: binding; conditions: Plk3 10 μM, T521 500 μM, RT, 30 min
T3 construct: purchased Sino Biological Inc
Procedure: as §2, §3, §4, §5

T3 sequence (Q9H4B4 whole entry): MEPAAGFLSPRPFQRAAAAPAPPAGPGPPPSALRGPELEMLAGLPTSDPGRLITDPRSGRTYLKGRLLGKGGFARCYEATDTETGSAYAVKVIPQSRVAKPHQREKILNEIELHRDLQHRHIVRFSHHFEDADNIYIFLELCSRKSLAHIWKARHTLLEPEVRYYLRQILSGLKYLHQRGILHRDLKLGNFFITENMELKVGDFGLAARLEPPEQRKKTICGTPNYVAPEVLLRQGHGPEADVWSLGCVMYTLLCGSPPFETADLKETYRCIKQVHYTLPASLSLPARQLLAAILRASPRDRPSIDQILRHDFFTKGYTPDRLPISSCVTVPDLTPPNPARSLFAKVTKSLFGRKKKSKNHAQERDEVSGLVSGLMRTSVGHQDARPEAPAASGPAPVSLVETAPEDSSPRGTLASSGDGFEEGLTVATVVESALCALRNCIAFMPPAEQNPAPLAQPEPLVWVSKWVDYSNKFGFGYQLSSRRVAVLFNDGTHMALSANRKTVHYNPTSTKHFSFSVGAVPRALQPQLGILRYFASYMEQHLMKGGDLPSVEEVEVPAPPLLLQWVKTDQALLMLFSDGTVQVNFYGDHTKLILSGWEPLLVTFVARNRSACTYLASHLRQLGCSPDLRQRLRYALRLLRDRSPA
T2 sequence (Q9NYY3 whole entry): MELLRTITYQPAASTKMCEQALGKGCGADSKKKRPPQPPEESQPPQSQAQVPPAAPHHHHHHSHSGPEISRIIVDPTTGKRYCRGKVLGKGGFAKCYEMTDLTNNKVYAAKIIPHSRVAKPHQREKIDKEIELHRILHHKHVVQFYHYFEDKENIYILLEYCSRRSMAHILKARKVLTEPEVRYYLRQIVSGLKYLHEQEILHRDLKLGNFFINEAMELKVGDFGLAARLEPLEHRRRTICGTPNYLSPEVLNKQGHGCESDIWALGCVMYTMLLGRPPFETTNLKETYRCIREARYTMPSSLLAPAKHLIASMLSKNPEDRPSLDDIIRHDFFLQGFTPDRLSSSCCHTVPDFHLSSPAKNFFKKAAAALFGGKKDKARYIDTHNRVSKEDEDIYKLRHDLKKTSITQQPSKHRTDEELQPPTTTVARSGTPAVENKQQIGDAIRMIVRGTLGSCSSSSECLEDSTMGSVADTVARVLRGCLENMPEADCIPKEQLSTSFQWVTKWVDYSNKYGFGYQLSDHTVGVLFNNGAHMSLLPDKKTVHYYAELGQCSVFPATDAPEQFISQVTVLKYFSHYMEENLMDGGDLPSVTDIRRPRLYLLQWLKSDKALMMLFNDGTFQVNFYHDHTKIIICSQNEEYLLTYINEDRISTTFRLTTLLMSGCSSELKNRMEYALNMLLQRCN
T1 sequence (P53350 whole entry): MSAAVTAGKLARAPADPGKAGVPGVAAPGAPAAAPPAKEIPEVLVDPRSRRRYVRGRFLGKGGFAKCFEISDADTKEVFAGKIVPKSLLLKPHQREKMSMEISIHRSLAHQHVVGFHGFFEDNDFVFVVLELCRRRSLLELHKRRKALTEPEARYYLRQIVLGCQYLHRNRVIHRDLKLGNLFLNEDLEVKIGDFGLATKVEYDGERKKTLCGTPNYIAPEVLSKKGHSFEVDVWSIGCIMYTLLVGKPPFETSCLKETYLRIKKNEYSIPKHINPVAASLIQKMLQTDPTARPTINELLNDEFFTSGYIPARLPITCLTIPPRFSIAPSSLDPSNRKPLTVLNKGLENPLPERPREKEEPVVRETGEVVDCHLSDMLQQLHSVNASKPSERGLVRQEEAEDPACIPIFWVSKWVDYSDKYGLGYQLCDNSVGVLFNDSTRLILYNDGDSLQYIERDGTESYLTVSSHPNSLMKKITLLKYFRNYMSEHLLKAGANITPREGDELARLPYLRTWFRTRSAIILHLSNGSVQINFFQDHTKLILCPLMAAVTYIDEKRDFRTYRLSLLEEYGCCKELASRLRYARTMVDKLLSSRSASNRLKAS

For `CCS(=O)(=O)c1oc(-c2ccc(F)cc2)nc1S(=O)(=O)c1ccccc1` [T521, 5-(ethylsulfonyl)-2-(4-fluorophenyl)-4-(phenylsulfonyl) oxazole], the IC50 [1] was 1 to 5 µM, the “mitotic markers (Plk1, Cyclin B1, pHH-3) protein levels” value [2] was “accumulation of these mitotic markers” and the “cell population positive for Annexin V staining” value [3] was “increase of cell population positive for Annexin V staining”. The tumor volume [4] was “obvious reduction of tumor volume”, the “tolerability by body weight” value [5] was “well tolerated” and the “increase of intact mass of protein (covalent addition)” value [6] was 907.05 Da. For the same compound, the “covalent addition to protein” value [7] was “no addition” and the “covalent addition to protein” value [8] was “no addition”.
